These results are taken from patent publication US11976083B2, “Inhibitors of peptidylarginine deiminases” (Gilead Sciences, Inc., priority 2020, dated 2024).

The test system of data set [1] is models of chronic and acute inflammatory diseases. To be noted: MRL/lpr mouse lupus, hemorrhagic shock in rats, mouse CLP sepsis, mouse DSS-colitis, ApoE-/- arteriosclerosis, diabetic wound healing models; cited from earlier work.
Data set [2] concerns collagen induced arthritis (CIA). To be noted: prophylactic treatment, murine CIA model; cited from earlier work.
For data set [3] the following is noted: from COc1cc(C(=O)OC(C)C)cc2nc(-c3cc4ccc([C@@H](C)N)nc4n3CCCCCc3ccccc3C(=O)O)n(C)c12; amide bond; HATU; DCM; 24.6 mM; 25.0 °C; 16.0 h.
For data set [4], the target named is T1, human PAD4 (Homo sapiens, UniProt Q9UM07).
T1 construct: human PAD4 (NM_012387), A2-P663, was PCR amplified; His-SUMO (N, cleaved yes); made in house; host or cells: E. coli BL21(DE3)
As to the kind of experiment: In vitro PAD4 BAEE biochemical assay. The following applies: BAEE substrate 3 mM, 5 nM PAD4, 2 mM calcium chloride; geometric mean of multiple experiments. The essentials: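 Recombinant PAD4 (5 nM final) with 2 mM CaCl2 was preincubated with compound for 30 min at 25 °C in MOPS pH 7.6 buffer with DTT, then reacted with 3 mM BAEE for 2 h at 25 °C. Released ammonia was detected fluorimetrically with o-phthalaldehyde/DTT; IC50 from four-parameter fit, geometric mean of experiments.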

By IC50 is commonly meant the concentration at which inhibition is half-maximal.

T1 sequence (Q9UM07 2-663): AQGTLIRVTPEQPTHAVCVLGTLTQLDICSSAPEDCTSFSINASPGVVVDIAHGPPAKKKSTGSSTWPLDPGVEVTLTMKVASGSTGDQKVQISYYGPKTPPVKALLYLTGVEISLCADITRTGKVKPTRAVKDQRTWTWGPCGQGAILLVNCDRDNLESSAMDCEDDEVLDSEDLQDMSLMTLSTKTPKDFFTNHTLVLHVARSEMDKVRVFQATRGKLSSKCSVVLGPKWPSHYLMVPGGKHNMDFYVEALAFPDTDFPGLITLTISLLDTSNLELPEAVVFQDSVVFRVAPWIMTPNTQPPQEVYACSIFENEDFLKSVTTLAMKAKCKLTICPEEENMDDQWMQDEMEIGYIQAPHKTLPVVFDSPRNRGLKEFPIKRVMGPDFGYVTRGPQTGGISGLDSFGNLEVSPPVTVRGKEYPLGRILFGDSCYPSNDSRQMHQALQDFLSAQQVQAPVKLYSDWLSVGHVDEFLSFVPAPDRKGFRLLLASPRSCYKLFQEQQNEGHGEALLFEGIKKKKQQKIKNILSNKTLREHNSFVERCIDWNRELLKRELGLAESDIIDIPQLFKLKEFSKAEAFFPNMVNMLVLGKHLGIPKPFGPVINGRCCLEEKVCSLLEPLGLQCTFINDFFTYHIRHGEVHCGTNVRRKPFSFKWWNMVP

On to `NC(=O)[C@H](CCCN=C(N)CCl)NC(=O)c1ccccc1` [chloroamidine], for which the “clinical, inflammatory, histopathological and mechanical end points” value in data set [1] is “reduction of clinical, inflammatory, histopathological and mechanical end points”. Besides, the “clinical and histological scores” value in data set [2] is “improvement of clinical and histological scores”.

For YW3-56, the “clinical, inflammatory, histopathological and mechanical end points” value in data set [1] is “reduction of clinical, inflammatory, histopathological and mechanical end points”.

Turning to `COc1cc(C(=O)OC(C)C)cc2nc(-c3cc4ccc5nc4n3CCCCCc3ccccc3C(=O)N[C@@H]5C)n(C)c12`, the ring closure, yield of all isomers in data set [3] was 70.9%.

`CCn1c(-c2nc3cc(C(=O)N4CCC[C@@H](N)C4)cc(OC)c3n2C)cc2cccnc21.Cl` [GSK199]: in data set [2], the “clinical and histological scores” value was “improvement of clinical and histological scores”.

In the case of `C[C@H]1NC(=O)[C@@H]2C[C@@H]2C/C=C\CCn2c(-c3nc4cc(C(=O)N[C@H]5CNCC[C@@H]5F)c(F)cc4n3C3CC3)cc3ccc1nc32` [Example 519, 1-cyclopropyl-6-fluoro-~{N}-[(3~{S},4~{S})-4-fluoro-3-piperidyl]-2-[(2~{R}, 5~{R},7~{S},9~{Z})-2-methyl-4-oxo-3,13,19-triazatetracyclo[11.5.2.0^ {5,7}.0^{16,20}]icosa-1 (19),9,14,16(20),17-pentaen-14-yl]benzimidazole-5-carboxamide], the IC50 in data set [4] was determined as 44 nM.

`COc1cc(C(=O)N2[C@H]3CC[C@@H]2[C@H](N)C3)cc2nc(-c3cc4ccc5nc4n3CCCCCCNC(=O)c3ccccc3-5)n(C)c12` [Example 48, 17-[5-[(1~{R),2~{R},4~{S})-2-amino-7-azabicyclo[2.2.1]heptane-7-carbonyl]-7-methoxy-1-methyl-benzimidazol-2-yl]-9,16,22-triazatetracyclo[14.5.2.0^{2,7}.0^{19,23}] tricosa-1(22),2,4,6,17,19(23),20-heptaen-8-one]: the IC50 in data set [4] came out at 75 nM.

With `COc1cc(C(=O)N[C@H]2CNCC[C@@H]2F)cc2nc(-c3cc4ccc5nc4n3CCCCCCC3(CC3)C(=O)N[C@@H]5C)n(C)c12` [Example 74, ~{N}-[(3~{S},4~{S})-4-fluoro-3-piperidyl]-7-methoxy-1-methyl-2-[(11~{R})-11-methyl-9-oxo-spiro[1,10,19-triazatricyclo[10.5.2.0^{15,18}]nonadeca-12(19),13,15(18),16-tetraene-8,1′-cyclopropane]-17-yl]benzimidazole-5-carboxamide], the IC50 in data set [4] was 221 nM.
